The results in this text go back to US12581252B2, “Substituted pyrrolo[3,4-b]pyridines as PI3K-α inhibitors” (Relay Therapeutics, Inc., priority 2020, dated 2026).

Chain of H1047R PIK3CA enzyme (P42336 whole entry H1047R): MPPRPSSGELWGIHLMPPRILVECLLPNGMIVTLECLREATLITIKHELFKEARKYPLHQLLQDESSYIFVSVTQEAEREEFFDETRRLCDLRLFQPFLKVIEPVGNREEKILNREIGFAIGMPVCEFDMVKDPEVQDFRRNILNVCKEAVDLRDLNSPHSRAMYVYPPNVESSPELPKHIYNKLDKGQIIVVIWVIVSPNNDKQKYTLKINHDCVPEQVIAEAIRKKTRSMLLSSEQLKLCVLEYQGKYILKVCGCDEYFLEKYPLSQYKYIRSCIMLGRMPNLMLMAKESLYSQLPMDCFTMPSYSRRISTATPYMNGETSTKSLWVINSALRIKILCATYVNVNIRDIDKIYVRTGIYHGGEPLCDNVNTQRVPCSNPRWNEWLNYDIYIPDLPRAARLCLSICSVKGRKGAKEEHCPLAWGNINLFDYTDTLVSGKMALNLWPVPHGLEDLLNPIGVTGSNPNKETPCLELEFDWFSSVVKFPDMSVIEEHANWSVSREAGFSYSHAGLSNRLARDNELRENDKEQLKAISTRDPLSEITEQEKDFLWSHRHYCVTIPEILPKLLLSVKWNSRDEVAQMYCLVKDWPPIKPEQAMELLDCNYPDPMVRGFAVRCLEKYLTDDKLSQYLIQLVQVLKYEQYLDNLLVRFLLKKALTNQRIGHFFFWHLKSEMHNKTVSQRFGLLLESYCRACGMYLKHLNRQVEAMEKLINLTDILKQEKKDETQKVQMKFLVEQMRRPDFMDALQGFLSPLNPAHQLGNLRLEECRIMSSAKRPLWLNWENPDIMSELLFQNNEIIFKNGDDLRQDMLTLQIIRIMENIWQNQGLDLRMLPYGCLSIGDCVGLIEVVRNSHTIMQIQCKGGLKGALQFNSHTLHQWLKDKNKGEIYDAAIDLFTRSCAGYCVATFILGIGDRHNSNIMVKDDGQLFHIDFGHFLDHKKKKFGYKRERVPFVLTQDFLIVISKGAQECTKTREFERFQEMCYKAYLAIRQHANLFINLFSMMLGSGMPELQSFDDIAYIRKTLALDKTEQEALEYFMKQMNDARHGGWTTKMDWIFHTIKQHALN
Chain of H1047R PIK3CA enzyme (P27986 whole entry partner): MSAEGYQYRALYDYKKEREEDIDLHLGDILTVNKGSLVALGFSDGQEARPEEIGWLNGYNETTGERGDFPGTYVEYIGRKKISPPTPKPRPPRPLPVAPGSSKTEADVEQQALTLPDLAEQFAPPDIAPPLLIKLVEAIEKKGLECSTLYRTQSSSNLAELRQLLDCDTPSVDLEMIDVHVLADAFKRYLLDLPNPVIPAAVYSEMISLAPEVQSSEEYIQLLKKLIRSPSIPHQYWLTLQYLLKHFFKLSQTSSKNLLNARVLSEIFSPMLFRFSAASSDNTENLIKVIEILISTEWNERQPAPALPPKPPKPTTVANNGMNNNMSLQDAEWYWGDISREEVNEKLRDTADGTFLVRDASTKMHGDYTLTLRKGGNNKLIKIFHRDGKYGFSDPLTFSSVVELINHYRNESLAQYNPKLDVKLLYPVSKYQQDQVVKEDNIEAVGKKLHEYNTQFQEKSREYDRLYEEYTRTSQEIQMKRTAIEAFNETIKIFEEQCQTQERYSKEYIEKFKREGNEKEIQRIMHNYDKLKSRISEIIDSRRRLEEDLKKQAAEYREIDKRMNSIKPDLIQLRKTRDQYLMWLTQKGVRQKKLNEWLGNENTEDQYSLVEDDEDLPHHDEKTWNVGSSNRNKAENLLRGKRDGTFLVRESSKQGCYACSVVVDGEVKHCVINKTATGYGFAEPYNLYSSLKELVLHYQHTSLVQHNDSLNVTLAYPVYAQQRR

The experiment concerns the target H1047R PIK3CA enzyme (Homo sapiens, UniProt P42336, H1047R). Put plainly: ADP-Glo Biochemical PIK3CA Kinase Assay. On the technique in general: ADP-Glo turns the ADP formed in a reaction into a luminescent signal.
As to `O=C(Nc1cc(Br)cc2c1C(c1cc(F)ccc1Cl)NC2=O)c1ccc(F)c(OC(F)F)c1` (stereo not drawn) [Compound I-558], the half-inhibitory concentration (IC50) (in general, the point on the concentration scale where inhibition reaches its midpoint) was 1 to 10 µM.

Regarding `COc1cc(C(=O)Nc2cc(Br)cc3c2C(c2cc(F)ccc2Cl)NC3=O)ccc1F` (stereo not drawn) [Compound I-559], the IC50 lay in the range of 1 to 10 µM.

`O=C(Cc1cc(F)ccc1C(F)(F)F)Nc1cc(Br)cc2c1C(c1cc(F)ccc1Cl)NC2=O` (stereo not drawn) [Compound I-560] showed a concentration for half-maximal inhibition (IC50) of 1 to 10 µM.

`O=C(Nc1cc(Br)cc2c1C(c1cc(F)ccc1Cl)NC2=O)c1cnn(-c2ccccc2)c1` (stereo not drawn) [Compound I-561] showed an IC50 of 10 to 100 µM.

`O=C1NC(c2cc(F)ccc2Cl)c2c(NC(=O)c3cccn4ccnc34)cc(Br)cc21` (stereo not drawn) [Compound I-562]: the IC50 was in the range of 10 to 100 µM.

As for `O=C(Cc1c(F)ccc(F)c1F)Nc1cc(Br)cc2c1C(c1cc(F)ccc1Cl)NC2=O` (stereo not drawn) [Compound I-563], the IC50 lay in the range of 10 to 100 µM.

`O=C(Nc1cc(Br)cc2c1C(c1cc(F)ccc1Cl)NC2=O)c1cc(F)c(F)c(Cl)c1` (stereo not drawn) [Compound I-564] registered an IC50 of at most 0.1 µM.

`O=C(Nc1cc(Br)cc2c1C(c1cc(F)ccc1Cl)NC2=O)c1ccc(F)c(Cl)c1` (stereo not drawn) [Compound I-565] registered an IC50 of 0.5 to 1 µM.

`O=C(Nc1cc(Br)cc2c1C(c1cc(F)ccc1Cl)NC2=O)c1ccc(F)c(C(F)(F)F)c1` (stereo not drawn) [Compound I-566] yielded a 50% inhibitory concentration (IC50) of 0.5 to 1 µM.

`O=C(Nc1cc(Br)cc2c1C(c1cc(F)ccc1Cl)NC2=O)c1cccc(C(F)(F)F)n1` (stereo not drawn) [Compound I-567] returned an IC50 of 1 to 10 µM.

Take `O=C(Cc1ccccc1C(F)(F)F)Nc1cc(Br)cc2c1C(c1cc(F)ccc1Cl)NC2=O` (stereo not drawn) [Compound I-568]: the half-maximal inhibitory concentration (IC50) is 1 to 10 µM.

In turn, `O=C(Nc1cc(Br)cc2c1C(c1cc(F)ccc1Cl)NC2=O)c1cccc(C2CC2)c1` (stereo not drawn) [Compound I-569] returned an IC50 of 1 to 10 µM.

`O=C(Nc1cc(Br)cc2c1C(c1cc(F)ccc1Cl)NC2=O)c1cccc(C(F)F)c1` (stereo not drawn) [Compound I-570]: the IC50 lay within 1 to 10 µM.

Turning to `O=C(Nc1cc(Br)cc2c1C(c1cc(F)ccc1Cl)NC2=O)c1ccccc1OC(F)(F)F` (stereo not drawn) [Compound I-571], the concentration for half-maximal inhibition (IC50) fell in the range of 1 to 10 µM.

In the case of `O=C(Nc1cc(Br)cc2c1C(c1cc(F)ccc1Cl)NC2=O)c1ccc(C(F)F)cc1` (stereo not drawn) [Compound I-572], the IC50 lay within 1 to 10 µM.

Compound `O=C(Nc1cc(Br)cc2c1C(c1cc(F)ccc1Cl)NC2=O)c1cccc(Cl)c1` (stereo not drawn) [Compound I-573] gave a concentration for half-maximal inhibition (IC50) of 0.5 to 1 µM.

The compound `O=C1NC(c2cc(F)ccc2Cl)c2c(NC(=O)N3CCCOCC3)cc(Br)cc21` (stereo not drawn) [Compound I-574] registered an IC50 of 10 to 100 µM.

The compound `O=C(Nc1cc(N2CC(O)C2)nc2c1C(c1cc(F)ccc1Cl)NC2=O)c1cc(F)cc(C(F)(F)F)c1` (stereo not drawn) [Compound I-575] displayed a half-inhibitory concentration (IC50) of at most 0.1 µM.

Compound `O=C1NC(c2cc(F)ccc2Cl)c2c(NC(=O)N3CCOCC3)cc(Br)cc21` (stereo not drawn) [Compound I-576] showed an IC50 of 10 to 100 µM.

On to `O=C1NC(c2cc(F)ccc2Cl)c2c(NC(=O)N3CCCCCC3)cc(Br)cc21` (stereo not drawn) [Compound I-577], for which the IC50 lay within 10 to 100 µM.

Consider `NC(=O)Cc1cc(NC(=O)c2cc(F)cc(C(F)(F)F)c2)c2c(c1)C(=O)NC2c1cc(F)ccc1Cl` (stereo not drawn) [Compound I-578], for which the concentration for half-maximal inhibition (IC50) was at most 0.1 µM.

Compound `O=C(Nc1cc(CCO)cc2c1C(c1cc(F)ccc1Cl)NC2=O)c1cc(F)cc(C(F)(F)F)c1` (stereo not drawn) [Compound I-579] gave an IC50 of at most 0.1 µM.

As for `O=C(Nc1cccc2c1C(c1cc(F)ccc1Cl)NC2=O)c1cc(F)c(F)c(C(F)(F)F)c1` (stereo not drawn) [Compound I-580], the half-maximal inhibitory concentration (IC50) was at most 0.1 µM.

Compound `CC(=O)c1cc(F)cc(C(=O)Nc2cccc3c2C(c2cc(F)ccc2Cl)NC3=O)c1` (stereo not drawn) [Compound I-581] showed an IC50 of 1 to 10 µM.

In turn, `Cn1cc(Br)c(C(=O)Nc2cccc3c2C(c2cc(F)ccc2Cl)NC3=O)n1` (stereo not drawn) [Compound I-582] returned an IC50 of 10 to 100 µM.

`Cn1ncc(Br)c1C(=O)Nc1cccc2c1C(c1cc(F)ccc1Cl)NC2=O` (stereo not drawn) [Compound I-583]: the IC50 lay in the range of 10 to 100 µM.

Compound `Cc1ncc(-c2cc(NC(=O)c3cc(F)cc(C(F)(F)F)c3)c3c(n2)C(=O)NC3c2cc(F)ccc2Cl)cn1` (stereo not drawn) [Compound I-584] returned an IC50 of at most 0.1 µM.
